{"source": "paper PMC10049354", "about": "“Anti-Inflammatory Effects and Photo- and Neuro-Protective Properties of BIO203, a New Amide Conjugate of Norbixin, in Development for the Treatment of Age-Related Macular Degeneration (AMD)” (International Journal of Molecular Sciences, 2023)", "key": {"[1]": {"experiment": "BIO203 in plasma and eyes of mice after 6 months of BIO203-containing pellets", "format": "in vivo", "protocol": "A custom rodent diet was formulated and irradiated (25 kGy) by Envigo RMS SARL (Gannat, France). Low dose (LD)-BIO203 (50 μg/g) and high dose (HD)-BIO203 (500 μg/g) were incorporated into Teklad Custom Research Diet 2016© pellets. The pellets were stored at −20 °C until use and were administered ad libitum as the standard Teklad Global Rodent Diet 2016© used for the control group. The concentration of BIO203 in the customized pellets at the end of each batch was determined by HPLC MS/MS. The mean concentration was 46 μg/g ± 3.5 μg/g of pellet for the LD and 464 μg/g ± 24.3 μg/g of pellet for the HD. We calculated that in the LD group, male mice weighing 31.63 g after 2 months of complementation consumed 4.16 g of pellets, and in the HD group, male mice weighing 34.11 g after 2 months of complementation consumed 4.11 g of pellets every day, which correspond to a daily dose of 6.04 ± 0.46 mg/kg for the LD-BIO203 pellets and 55.91 ± 2.93 mg/kg for the HD-BIO203 pellets.\nTo test the preventive/curative action of oral administration of BIO203 against retinal neurodegeneration, a total of 27 Pigmented Abca4^−/− Rdh8^−/− mice carrying the Rpe65-Leu450 mutation and the rd8 mutation in the Crb1 gene from Case Western Reserve University of eleven to twelve months of age were used. Three groups of 9 males received control chow (Teklad Custom Research Diet 2016© pellets) or chow containing LD-BIO203 or HD-BIO203 orally for 6 months. After 6 months of complementation, ERG was measured in both eyes. In the control group, two mice died during the period of complementation and one mouse during ERG measurement. In the HD-BIO203 group, one mouse died before the end of complementation, and 3 mice died just after anesthesia. […] In each group, half of the eyes were removed for A2E and BIO203 measurements, and half of the eyes were used for histological analyses and photoreceptor layer quantification.\nAnalysis was performed on an LC 1260 System coupled with Mass Spectrometer QQQ-6420 with DAD (Agilent Technologies). […] BIO203 and its isomers were monitored by a mass spectrometer, in positive MRM mode, with the following transitions, respectively, 381.1 -> 144.9 and 478.1 -> 362.9. For quantification of BIO201 and BIO203, calibration curves were prepared under the same conditions as the sample matrix, with various amounts of BIO201 or BIO203 (25 to 10,000 ng/mL in plasma and 5 to 500 ng/mL for eyes).\nFor determination of norbixin or BIO203 concentrations in plasma, aliquots of plasma samples (25 μL) and internal standard (retinoic acid at 10 µg/mL) were distributed in a 96-well microtiter plate and precipitated with methanol (100 μL). […] Under these conditions, with 5 μL injections, the limit of quantification (LOQ) was 25 ng/mL (0.33 pmol for BIO201 and 0.26 pmol for BIO203). […]"}, "[2]": {"tested_on": "Abca4−/− Rdh8−/− mice", "experiment": "A2E quantification in eyes of Abca4−/− Rdh8−/− mice (HPLC-MS/MS)", "format": "in vivo, mouse", "conditions": "6 months", "from_the_text": "To test the preventive/curative action of oral administration of BIO203 against retinal neurodegeneration, a total of 27 Pigmented Abca4^−/− Rdh8^−/− mice carrying the Rpe65-Leu450 mutation and the rd8 mutation in the Crb1 gene from Case Western Reserve University of eleven to twelve months of age were used. Three groups of 9 males received control chow (Teklad Custom Research Diet 2016© pellets) or chow containing LD-BIO203 or HD-BIO203 orally for 6 months. After 6 months of complementation, ERG was measured in both eyes. In the control group, two mice died during the period of complementation and one mouse during ERG measurement. In the HD-BIO203 group, one mouse died before the end of complementation, and 3 mice died just after anesthesia. All the mice that received LD-BIO203 were alive until the end of the complementation. One of them died during the photopic ERG measurement. Blood was collected by submandibular puncture in all mice before being euthanized. In each group, half of the eyes were removed for A2E and BIO203 measurements, and half of the eyes were used for histological analyses and photoreceptor layer quantification.\nA2E quantification in eyes was performed using the HPLC-MS/MS method, which has been described previously."}}, "data": [{"smiles": "COC1CCCN(C(=O)/C=C/C(C)=C/C=C/C(C)=C/C=C/C=C(C)/C=C/C=C(C)\\C=C\\C(=O)O)C1", "note": "(stereo not drawn) [BIO203]", "values": [{"measurement": "BIO203 in the eyes", "setting": "[1]; HD pellets (500 μg/g)", "value": "not detected"}, {"measurement": "BIO203 in the plasma", "setting": "[1]; HD pellets (500 μg/g)", "value": "detected"}, {"measurement": "BIO203 in the eyes", "setting": "[1]; LD pellets (50 μg/g)", "value": "not detected"}, {"measurement": "BIO203 in the plasma", "setting": "[1]; LD pellets (50 μg/g)", "value": "absence of BIO203 plasmatic exposure"}, {"measurement": "change of A2E concentration in the retinas compared with control pellets", "setting": "[2]; HD pellets, not significant, p = 0.407", "value": "−21.7", "unit": "%"}, {"measurement": "amount of ocular A2E compared with control pellets", "setting": "[2]; LD pellets", "value": "did not differ significantly"}]}]}
